According to patent US4670440A (priority 1985, dated 1987):
“Also recorded” adds a separate entry of the source.

Experiments:
[1] = because of the low solubility; cited from earlier work
Pseudomonas Aeruginosa = experiment: Minimal inhibiting concentration (MIC), agar-diffusion technique, series diluting method; conditions: norfloxacin dissolved in dimethyl-sulphoxide, THA salt in water
[2] = test system: Pseudomonas aeruginosa and gram positive and gram negative bacteria; conditions: Antimicrobial Agents and Chemotherapy 1980, 17, 103-108; cited from earlier work
Staphylococcus aureus = experiment: Minimal inhibiting concentration (MIC), agar-diffusion technique, series diluting method; conditions: norfloxacin dissolved in dimethyl-sulphoxide, THA salt in water
[3] = Absorption by the organism / through the intestines; type: in vivo; conditions: compound according to the invention; no test data shown
E. Coli = experiment: Minimal inhibiting concentration (MIC), agar-diffusion technique, series diluting method; type: cell-based; conditions: in vitro; norfloxacin dissolved in dimethyl-sulphoxide, THA salt in water; listed as Norfloxacin-THA-salt
[4] = Watersolubility (literature / general statement); type: physicochemical; conditions: water, new compound of the Formula I
[5] = in vitro, listed as Norfloxacin-THA-salt

Row | SMILES | material absorbed going through the intestines [1] | MIC (Pseudomonas Aeruginosa; Pseudomonas aeruginosa, read-out: MIC value, in vitro) | activity in the therapy of urethral infections [2] | MIC (Staphylococcus aureus; Staphylococcus aureus, read-out: MIC value, in vitro) | absorption (in words) [3] | biological utilization [3] | MIC value (E. Coli) | MIC value (Pseudomonas Aeruginosa; [5]) | MIC value (Staphylococcus aureus; [5]) | solubility [4]
1 | CCn1cc(C(=O)O)c(=O)c2cc(F)c(N3CCNCC3)cc21 [Norfloxacin, 1-ethyl-4-oxo-6-fluoro-7-(1-piperazinyl)-1,4-dihydro-quinoline-3-carboxylic acid, reference compound] | about 40% | 0.5 to 0.75 µg/mL | good activity | 0.25 to 0.5 µg/mL |  |  |  |  |  | 
2 | CCn1cc(C(=O)O)c(=O)c2cc(F)c(N3CCNCC3)cc21 [Compound of the Formula I, N,N,N-trimethyl-2-hydroxyethyl-ammonium-[1-ethyl-6-fluoro-4-oxo-7-(1-piperazinyl)-1,4-dihydro-quinoline-3-carboxylate]] |  |  |  |  | better absorption; also recorded: quick absorption; also recorded: excellent absorption | good biological utilization | 0.05 to 0.25 µg/mL | 0.25 to 0.5 µg/mL | 0.25 µg/mL | > 1000 mg/mL
